From article PMC2798597 (Biochemical pharmacology, 2009) come the findings set out here.

Where two headings read alike, the source gives them in different places.

One data set relates to MCF-7/adr (ABCB1). The data set can be described thus: MTT cytotoxicity / MDR reversal. It counts as cell-based, human. To be noted: for IC50: Homo sapiens, NCI/ADR-RES, read-out: IC50 ± SD; for fold-reversal: MCF-7/adr cells, drug alone, no FG020326 (reference).
Another data set concerns SW1573/2R120 (LRP). The data set can be described thus: MTT cytotoxicity / MDR reversal. In kind it is cell-based, human.
The test system of another data set is KBv200 (ABCB1). The data set can be described thus: MTT cytotoxicity / MDR reversal. In kind it is cell-based, human. To be noted: for IC50: Homo sapiens, KBv200, read-out: IC50 ± SD; for fold-reversal: KBv200 cells, drug alone, no FG020326 (reference).
The next data set has as its system SW1573. Put plainly: MTT cytotoxicity / MDR reversal. It counts as cell-based, human.
A further data set has as its system KB. The data set can be described thus: MTT cytotoxicity / MDR reversal. It counts as cell-based, human. Particulars: for IC50: Homo sapiens, KB, read-out: IC50 ± SD; for fold-reversal: KB cells, drug alone, no FG020326 (reference).
Another data set deals with MCF-7. The data set can be described thus: MTT cytotoxicity / MDR reversal. In kind it is cell-based, human. To be noted: for fold-reversal: no FG020326 (reference).
The subject of a further data set is S1. The data set can be described thus: MTT cytotoxicity / MDR reversal. It counts as cell-based.
For another data set, the system named is S1-M1-80 (ABCG2). The data set can be described thus: MTT cytotoxicity / MDR reversal. It counts as cell-based.
The nature of data set [1]: Paclitaxel plasma levels / pharmacokinetics in mice. To be noted: for AUC(0-t): AUC0→ 12, paclitaxel 18 mg/kg i.v. In kind it is in vivo, NIH mice.
The subject of the next data set is KBv200 cell xenografts. The data set can be described thus: MDR human carcinoma xenograft model. In kind it is in vivo, athymic nude mice.
In another data set the test system is NIH3T3/MRP-4-2 (ABCC4). The data set can be described thus: MTT cytotoxicity / MDR reversal. It counts as cell-based, murine.
A further data set concerns KB-3-1. Put plainly: MTT cytotoxicity / MDR reversal. It counts as cell-based, human.
The next data set concerns KB-CV60 (ABCC1). The data set can be described thus: MTT cytotoxicity / MDR reversal. In kind it is cell-based, human.
The subject of the next data set is NIH3T3. The data set can be described thus: MTT cytotoxicity / MDR reversal. It counts as cell-based, murine.
Setting [2] is: Homo sapiens, SW1573, read-out: IC50 ± SD.
Where [3] appears, read: Homo sapiens, MCF7, read-out: IC50 ± SD.
The mark [4] stands for this setting: paclitaxel experiment, paclitaxel 18 mg/kg i.p. q5d×3, FG020326 100 mg/kg p.o.
Where [5] appears, read: Mus musculus, NIH3T3, read-out: IC50 ± SD.
[6] abbreviates: VCR experiment, VCR 0.2 mg/kg i.p. q2d×6, FG020326 100 mg/kg p.o. q2d×6.

In the case of `COc1cccc2c1C(=O)c1c(O)c3c(c(O)c1C2=O)C[C@@](O)(C(=O)CO)C[C@@H]3O[C@H]1C[C@H](N)[C@H](O)[C@H](C)O1` [Doxorubicin, doxorubicin, reference compound], the IC50 is 14300 ± 1420 nM in the data set on MCF-7/adr (ABCB1); 1540 ± 279 nM in the data set with SW1573/2R120 (LRP) (setting [2]); 979 ± 123 nM with KBv200 (ABCB1); 116 ± 24 nM in the data set with SW1573 (setting [2]); 20 ± 10 nM with KB; 81 ± 10 nM in the data set with MCF-7 (setting [3]). Also, the fold-reversal entry in the data set with MCF-7/adr (ABCB1) was “(1.0) fold”; in the data set with SW1573/2R120 (LRP) (SW1573/2R120 cells, drug alone, no FG020326 (reference)) it was “(1.0) fold”; in the data set on KBv200 (ABCB1), “(1.0) fold”; in the data set on SW1573 (SW1573 cells, drug alone, no FG020326 (reference)), “(1.0) fold”; in the data set on KB, “(1.0) fold”; with MCF-7 (MCF-7 cells, drug alone), “(1.0) fold”.
Take `CC[C@@]1(O)C(=O)OCc2c1cc1n(c2=O)Cc2cc3c(CN(C)C)c(O)ccc3nc2-1` [Topotecan, topotecan]: the fold-reversal entry in the data set on S1 (S1 cells, drug alone, no FG020326 (reference)) is “(1.0) fold”; in the data set on S1-M1-80 (ABCG2) (S1-M1-80 cells, drug alone, no FG020326 (reference)) it was “(1.0) fold”. In addition, the IC50 in the data set with S1 (read-out: IC50 ± SD) amounted to 84 ± 24 nM; in the data set with S1-M1-80 (ABCG2) (Homo sapiens, S1-M1-80, read-out: IC50 ± SD), 12000 ± 1280 nM. In addition, the fold resistance in the data set on S1-M1-80 (ABCG2) (S1-M1-80 compared with S1 cells) is 143.2 fold.
Turning to `CC(=O)O[C@H]1C(=O)[C@@]2(C)[C@H]([C@H](OC(=O)c3ccccc3)[C@]3(O)C[C@H](OC(=O)[C@H](O)[C@@H](NC(=O)c4ccccc4)c4ccccc4)C(C)=C1C3(C)C)[C@]1(OC(C)=O)CO[C@@H]1C[C@@H]2O` [Paclitaxel], the 50% inhibitory concentration (IC50) is 340 ± 38.7 nM in the data set with MCF-7/adr (ABCB1), 48.3 ± 4.12 nM in the data set with KBv200 (ABCB1), 1.38 ± 0.148 nM in the data set on KB and 6.91 ± 0.903 nM in the data set with MCF-7 (setting [3]). Further, the fold-reversal result is given as “(1.0) fold” in the data set with MCF-7/adr (ABCB1); “(1.0) fold” with KBv200 (ABCB1); “(1.0) fold” in the data set with KB; “(1.0) fold” in the data set on MCF-7 (MCF-7 cells, drug alone). Also, the AUC(0-t) was 69400 ± 2260 ng·h/mL in data set [1] (both, NIH, mouse, plasma, iv, 18 mg/kg, with FG020326 100 mg/kg p.o.) and 73600 ± 5580 ng·h/mL in [1] (both, NIH, mouse, plasma, iv, 18 mg/kg, without FG020326). The same molecule gave an area under the curve AUC(0-inf) in data set [1] (both, NIH, mouse, plasma, iv, 18 mg/kg, AUC0→ ∞, paclitaxel 18 mg/kg i.v., without FG020326) of 73700 ± 5570 ng·h/mL. The clearance in data set [1] (both, NIH, mouse, plasma, iv, 18 mg/kg, CL, paclitaxel 18 mg/kg i.v., without FG020326) is 0.0888 mL/min. The same molecule returned an MRT in data set [1] (both, NIH, mouse, plasma, iv, 18 mg/kg, MRT, paclitaxel 18 mg/kg i.v., without FG020326) of 1.54 ± 0.02 h. In [1] (both, NIH, mouse, plasma, iv, 18 mg/kg, T1/2β, paclitaxel 18 mg/kg i.v., with FG020326 100 mg/kg p.o.), this molecule showed a half-life of 1.42 ± 0.08 h. Further, the Vd in [1] (both, NIH, mouse, plasma, iv, 18 mg/kg, Vd, paclitaxel 18 mg/kg i.v., without FG020326) amounted to 0.0124 ± 0.0011 L. Also, the T1/2α in data set [1] (paclitaxel 18 mg/kg i.v., without FG020326) came out at 0.55 ± 0.04 h. Moreover, in the data set on KBv200 cell xenografts (setting [4]), the “Growth Inhibition” value turned out to be 8.1%. Besides, in the data set on KBv200 cell xenografts (setting [4]), the “Post-experiment Weight (body weight)” value stood at 24.4 ± 2.6 g. Besides, the Weight of tumor in the data set on KBv200 cell xenografts (setting [4]) amounted to 2.06 ± 1.06 g.
Turning to `CC[C@]1(O)C[C@H]2CN(CCc3c([nH]c4ccccc34)[C@@](C(=O)OC)(c3cc4c(cc3OC)N(C=O)[C@H]3[C@@](O)(C(=O)OC)[C@H](OC(C)=O)[C@]5(CC)C=CCN6CC[C@]43[C@@H]65)C2)C1` [Vincristine, vincristine], the IC50 came to 4020 ± 656 nM with MCF-7/adr (ABCB1); 7250 ± 779 nM in the data set on NIH3T3/MRP-4-2 (ABCC4) (setting [5]); 1320 ± 256 nM with KBv200 (ABCB1); 7260 ± 724 nM with KB-3-1 (Homo sapiens, KB 3-1, read-out: IC50 ± SD); 88600 ± 8280 nM in the data set on KB-CV60 (ABCC1) (Homo sapiens, KB-CV60, read-out: IC50 ± SD); 324 ± 24 nM in the data set on NIH3T3 (setting [5]). Moreover, the IC50 came out at 28 ± 9 nM with KB and 59 ± 9 nM in the data set with MCF-7 (setting [3]). Also, the fold-reversal result is listed as “(1.0) fold” in the data set on MCF-7/adr (ABCB1); “(1.0) fold” in the data set with NIH3T3/MRP-4-2 (ABCC4) (NIH3T3/MRP-4-2 cells, drug alone, no FG020326 (reference)); “(1.0) fold” with KBv200 (ABCB1); “(1.0) fold” in the data set on KB-3-1 (KB-3-1 cells, drug alone, no FG020326 (reference)); “(1.0) fold” in the data set with KB-CV60 (ABCC1) (KB-CV60 cells, drug alone, no FG020326 (reference)); “(1.0) fold” in the data set with NIH3T3 (NIH3T3 cells, drug alone, no FG020326 (reference)). For the same molecule, the fold-reversal entry is listed as “(1.0) fold” in the data set with KB and “(1.0) fold” with MCF-7 (MCF-7 cells, drug alone). In addition, the “Post-experiment Weight (body weight)” value with KBv200 cell xenografts (setting [6]) is 25.6 ± 1.9 g. The molecule further returned a Weight of tumor in the data set on KBv200 cell xenografts (setting [6]) of 2.92 ± 0.94 g.
As to `N.N.[Cl][Pt][Cl]` [Cisplatin, cisplatin, reference compound], in the data set with MCF-7 (read-out: IC50 ± SD, MCF-7 cells, drug alone, no FG020326), the IC50 came out at 3550 ± 213 nM.
